From PMC5744864, “Indole and Benzimidazole Bichalcophenes: Synthesis, DNA Binding and Antiparasitic Activity” (European Journal of Medicinal Chemistry, 2018)
Structures can show the parent of a compound that is named as a salt. Where two headings read alike, the source gives them in different places.

Legend:
[1] = system: T. b. rhodesiense (STIB900) infected mice; assay: STIB900 acute mouse model for T. b. r. infections; type: in vivo; details: 4 × 5 mg/kg i.p.; for In vivo cure of infected mice (in words): T. b. rhodesiense infected mice; for In vivo (cures), cured/infected mice: T. b. rhodesiense (STIB900) infected mice
Method: The excellent in vitro activity and selectivity of the indole bichalcophenes diamidines (4a-d) encouraged us to test them in vivo in the rigorous T. b. r. STIB900 mouse model (Table 1) for the acute hemolymphatic stage of the African trypanosomiasis. The dosage applied was low with a daily intraperitoneal (i.p.) dose of 5 mg/kg compound for four consecutive days.
(§1) The in vitro viability assays were with the T. b. r. strain STIB 900 and the chloroquine resistant P. f. strain K1. The efficacy studies were with the STIB900 acute mouse model for T. b. r. infections. Dosage was 4 × 5 mg/kg i.p. performed as previously described in detail. Cytotoxicity was evaluated in L6 rat myoblast cells as previously reported in detail.

[2] = system: P. f. (Plasmodium falciparum) strain K1; assay: In vitro viability assay, chloroquine resistant P. f. strain K1; type: cell-based; details: for IC50: Plasmodium falciparum; for SI/P.f, Selectivity Index IC50 (L6)/IC50 (P.f.): ratio L6 versus P. f. K1
Method: as §1

Poly(dA).Poly(dT) = assay: Circular dichroism titration with Poly(dA).Poly(dT); type: binding; details: 20 μM Poly(dA).Poly(dT), 10 mM MES, 100 mM NaCl, 1 mM EDTA, 25 °C
Method: Fig. 2 Circular dichroism spectra of the titration of representative compounds, (4a, 4d, 8a, 8b, 8c) with a 20 μM Poly(dA).Poly(dT) sequence in the buffer (10 mM MES, 100 mM NaCl, 1 mM EDTA, at pH, 7.4) at 25 °C.
CD spectra were collected employing a Jasco J-810 spectrometer at 25 °C using different ratios of compound to DNA at 25 °C in MES 10 buffer (10 mM MES, 100 mM NaCl, I mM EDTA).First, a DNA solution in a 1-cm quartz cuvette was scanned over the desired wavelength range. Tested compounds at increasing ratios, were titrated into the same cuvette and the complexes rescanned under the same conditions.

[3] = Cytotoxicity in L6 rat myoblast cells; type: cell-based; details: cultured L6 rat myoblast cells; read-out: Cytotox. IC50 (L6)
Method: as §1

[4] = system: T. b. r. (Trypanosoma brucei rhodesiense) STIB900; assay: In vitro viability assay, T. b. r. strain STIB900; type: cell-based; details: for IC50: Trypanosoma brucei, read-out: T. b. r. IC50; for SI/T. b. r., Selectivity Index IC50 (L6)/IC50 (T b.r.): ratio L6 versus T. b. r. STIB900
Method: as §1

poly(dA-dT)n = assay: Thermal melting (ΔTm) of poly(dA-dT) DNA; type: binding; details: ratio 0.3 mol compound per mole of DNA; CAC 10 buffer pH 7.0
Method: Thermal melting experiments were performed with a Cary 300 spectrophotometer. Cuvettes were mounted in a thermal block where the solution temperatures were mesaured with a thermistor in the reference cuvette. Temperatures were maintained under computer control and increased at 0.5 °C/min. The experiments were performed in 1 cm path length quartz cuvettes in CAC 10 buffer (cacodylic acid 10 mM, EDTA 1 mM, NaCl 100 mM with NaOH added to give pH = 7.0). Poly (dA-dT) DNA concentrations were determined by measuring its absorbance at 260 nm. A ratio of 0.3 mol compound per mole of DNA was used for the complex and DNA alone was used as control. ΔTm values were determined from the peak of first derivative curves (dA/dT).

[5] = system: T. b. rhodesiense (STIB900) infected mice; parameters: method as in PMID 23959303; details: 5 mg/kg i.p. daily for four consecutive days; cited from earlier work
[6] = strain STIB900, average of duplicate determinations

**Q.** Which “In vivo cure of infected mice (in words)” value [1] does the source give for `N#Cc1ccc2nc(-c3ccc(-c4ccc(C#N)s4)s3)[nH]c2c1` [Compound 7c, 2-(5′-Cyano-2,2′-bithiophen-5-yl)-1H-benzimidazole-5(6)-carbonitrile] here?
**A.** Its value is “cured all mice”.

**Q.** And the melting point?
**A.** The melting point was greater than 300 °C.

**Q.** Which melting point does the source give for `N=C(N)c1ccc2cc(-c3ccc(-c4ccc(C(=N)N)o4)s3)[nH]c2c1` (as salt: hydrochloride) [Compound 4c, 2-(5-(5-Amidinofuran-2-yl)thiophen-2-yl)-1H-indole-6-amidine hydrochloride salt] here?
**A.** Its melting point is greater than 300 °C.

**Q.** What does the source list for `N=C(N)c1ccc2cc(-c3ccc(-c4ccc(C(=N)N)s4)s3)[nH]c2c1` [Compound 4d, 2-(5′-Amidino-2,2′-bithiophen-5-yl)-1H-indole-6-amidine hydrochloride salt]?
**A.** IC50 ([2]; K1, read-out: P.f. IC50): 6.8 nM; SI/P.f, Selectivity Index IC50 (L6)/IC50 (P.f.) [2]: 1705; Induced CD signal on binding (minor groove binding) (Poly(dA).Poly(dT)): very strong induced CD signals; IC50 [3]: 11600 nM; In vivo (cures), cured/infected mice [1]: 0/4; IC50 [4]: 2 nM; SI/T. b. r., Selectivity Index IC50 (L6)/IC50 (T b.r.) [4]: 5800; ΔTm, thermal melting increase of poly(dA-dT)n (poly(dA-dT)n): >30 ^oC

**Q.** With `N=C(N)c1ccc2nc(-c3ccc(-c4ccc(C(=N)N)s4)s3)[nH]c2c1` [Compound 8c, 2-(5′-Amidino-2,2′-bithiophen-5-yl)-1H-benzimidazole-5(6)-amidine hydrochloride salt] as the compound, how does the “Induced CD signal on binding (minor groove binding)” value (“Induced CD signal on binding” below) (Poly(dA).Poly(dT)) read?
**A.** Its value is “very strong induced CD signals”.

**Q.** And the IC50 [3]?
**A.** Its IC50 is 26200 nM.

**Q.** What about the IC50 [4, 6] of the same compound?
**A.** Its IC50 is 25 nM.

**Q.** And the “SI/T. b. r., Selectivity Index IC50 (L6)/IC50 (T b.r.)” value (from here on “SI/T. b. r., Selectivity Index IC50”) [4]?
**A.** Its value is 1048.

**Q.** And the “ΔTm, thermal melting increase of poly(dA-dT)n” value (from here on “ΔTm, thermal melting increase”) (poly(dA-dT)n)?
**A.** Its value is >30 ^oC.

**Q.** With `N=C(N)c1ccc(OCCCCCOc2ccc(C(=N)N)cc2)cc1` [pentamidine, Pentamidine] as the compound, how does the “In vivo (cures), cured/infected mice” value [5] read?
**A.** Its value is 1/4.

**Q.** For `N=C(N)c1ccc2nc(-c3ccc(-c4ccc(C(=N)N)s4)s3)[nH]c2c1` (as salt: hydrochloride) [Compound 8c, 2-(5′-Amidino-2,2′-bithiophen-5-yl)-1H-benzimidazole-5(6)-amidine hydrochloride salt], which melting point is on record?
**A.** The melting point was greater than 300 °C.

**Q.** For `N=C(N)c1ccc2nc(-c3ccc(-c4ccc(C(=N)N)o4)o3)[nH]c2c1` (as salt: hydrochloride) [Compound 8a, 2-(5′-Amidino-2,2′-bifuran-5-yl)-1H-benzimidazole-5(6)-amidine hydrochloride salt], which melting point is on record?
**A.** Its melting point is greater than 300 °C.

**Q.** With `N=C(N)c1ccc2cc(-c3ccc(-c4ccc(C(=N)N)o4)s3)[nH]c2c1` [Compound 4c, 2-(5-(5-Amidinofuran-2-yl)thiophen-2-yl)-1H-indole-6-amidine hydrochloride salt] as the compound, how does the IC50 ([2]; K1, read-out: P.f. IC50) read?
**A.** Its IC50 is 6.8 nM.

**Q.** And the “SI/P.f, Selectivity Index IC50 (L6)/IC50 (P.f.)” value [2]?
**A.** Its value is 2588.

**Q.** What about the IC50 [3] of the same compound?
**A.** Its IC50 is 17600 nM.

**Q.** What about the “Sterile cures in mice infected with T. b. r.” value ([1]; STIB900 mouse model) of the same compound?
**A.** The value was 100%.

**Q.** And the “In vivo (cures), cured/infected mice” value [1]?
**A.** Its value is 4/4.

**Q.** And the “In vivo cure of infected mice (in words)” value [1]?
**A.** Its value is “curing all T. b. r. infected mice”.

**Q.** And the IC50 [4]?
**A.** The IC50 was 4 nM.

**Q.** And the “SI/T. b. r., Selectivity Index IC50” value [4]?
**A.** Its value is 4400.

**Q.** What about the “ΔTm, thermal melting increase” value (poly(dA-dT)n) of the same compound?
**A.** The value was 28 ^oC.

**Q.** Which melting point does the source give for `N=C(N)c1ccc2nc(-c3ccc(-c4ccc(C(=N)N)s4)o3)[nH]c2c1` (as salt: hydrochloride) [Compound 8b, 2-(5-(5-Amidinothiophen-2-yl)furan-2-yl)-1H-benzimidazole-5(6)-amidine hydrochloride salt] here?
**A.** Its melting point is greater than 300 °C.

**Q.** For `N=C(N)c1ccc2cc(-c3ccc(-c4ccc(C(=N)N)s4)o3)[nH]c2c1` (as salt: hydrochloride) [Compound 4b, 2-(5-(5-Amidinothiophen-2-yl)furan-2-yl)-1H-indole-6-amidine hydrochloride salt], which melting point is on record?
**A.** The melting point was greater than 300 °C.

**Q.** With `N=C(N)c1ccc2cc(-c3ccc(-c4ccc(C(=N)N)s4)s3)[nH]c2c1` (as salt: hydrochloride) [Compound 4d, 2-(5′-Amidino-2,2′-bithiophen-5-yl)-1H-indole-6-amidine hydrochloride salt] as the compound, how does the melting point read?
**A.** Its melting point is greater than 300 °C.

**Q.** For `N=C(N)c1ccc2cc(-c3ccc(-c4ccc(C(=N)N)o4)o3)[nH]c2c1` (as salt: hydrochloride) [Compound 4a, 2-(5′-Amidino-2,2′-bifuran-5-yl)-1H-indole-6-amidine hydrochloride salt], which melting point is on record?
**A.** Its melting point is greater than 300 °C.

**Q.** What does the source list for `N=C(N)c1ccc2cc(-c3ccc(-c4ccc(C(=N)N)s4)o3)[nH]c2c1` [Compound 4b, 2-(5-(5-Amidinothiophen-2-yl)furan-2-yl)-1H-indole-6-amidine hydrochloride salt]?
**A.** IC50 ([2]; K1, read-out: P.f. IC50): 7.3 nM; SI/P.f, Selectivity Index IC50 (L6)/IC50 (P.f.) [2]: 2150; IC50 [3]: 15700 nM; In vivo (cures), cured/infected mice [1]: 0/4; IC50 [4]: 15 nM; SI/T. b. r., Selectivity Index IC50 (L6)/IC50 (T b.r.) [4]: 1046; ΔTm, thermal melting increase of poly(dA-dT)n (poly(dA-dT)n): >30 ^oC

**Q.** With `N=C(N)c1ccc2cc(-c3ccc(-c4ccc(C(=N)N)o4)o3)[nH]c2c1` [Compound 4a, 2-(5′-Amidino-2,2′-bifuran-5-yl)-1H-indole-6-amidine hydrochloride salt] as the compound, how does the IC50 ([2]; K1, read-out: P.f. IC50) read?
**A.** Its IC50 is 2.9 nM.

**Q.** What about the “Induced CD signal on binding” value (Poly(dA).Poly(dT)) of the same compound?
**A.** Its value is “very strong induced CD signals”.

**Q.** What about the IC50 [3] of the same compound?
**A.** Its IC50 is 16500 nM.

**Q.** What about the “In vivo (cures), cured/infected mice” value [1] of the same compound?
**A.** Its value is 0/4.

**Q.** And the IC50 [4]?
**A.** The IC50 was 15 nM.

**Q.** What about the “SI/T. b. r., Selectivity Index IC50” value [4] of the same compound?
**A.** Its value is 1100.

**Q.** And the “ΔTm, thermal melting increase” value (poly(dA-dT)n)?
**A.** Its value is 28 ^oC.

**Q.** With `N=C(N)c1ccc2nc(-c3ccc(-c4ccc(C(=N)N)s4)o3)[nH]c2c1` [Compound 8b, 2-(5-(5-Amidinothiophen-2-yl)furan-2-yl)-1H-benzimidazole-5(6)-amidine hydrochloride salt] as the compound, how does the “Induced CD signal on binding” value (Poly(dA).Poly(dT)) read?
**A.** Its value is “very strong induced CD signals”.

**Q.** What about the IC50 [3] of the same compound?
**A.** The IC50 was 15000 nM.

**Q.** And the IC50 [4, 6]?
**A.** Its IC50 is 64 nM.

**Q.** And the “SI/T. b. r., Selectivity Index IC50” value [4]?
**A.** Its value is 234.

**Q.** And the “ΔTm, thermal melting increase” value (poly(dA-dT)n)?
**A.** Its value is 27 ^oC.

**Q.** Which IC50 ([2]; chloroquine resistant strain K1, average of duplicate determinations, read-out: P.f. IC50) does the source give for `N=C(N)c1ccc2nc(-c3ccc(-c4ccc(C(=N)N)o4)o3)[nH]c2c1` [Compound 8a, 2-(5′-Amidino-2,2′-bifuran-5-yl)-1H-benzimidazole-5(6)-amidine hydrochloride salt] here?
**A.** The IC50 was 91.9 nM.

**Q.** What about the “SI/P.f, Selectivity Index IC50 (L6)/IC50 (P.f.)” value [2] of the same compound?
**A.** The value was 454.

**Q.** What about the “Induced CD signal on binding” value (Poly(dA).Poly(dT)) of the same compound?
**A.** Its value is “very strong induced CD signals”.

**Q.** What about the IC50 [3] of the same compound?
**A.** Its IC50 is 41800 nM.

**Q.** And the IC50 [4, 6]?
**A.** The IC50 was 102 nM.

**Q.** And the “SI/T. b. r., Selectivity Index IC50” value [4]?
**A.** Its value is 409.

**Q.** And the “ΔTm, thermal melting increase” value (poly(dA-dT)n)?
**A.** Its value is 29 ^oC.
